This note sets out measurements from PubChem BioAssay AID1996.

≈ marks a conversion by molar mass, not a printed value.

For the series the following is noted: buffer; pH 7.4; 200.0 µM.
Take `Cc1nc(SCC(=O)NCCN2C(=O)CSC2=O)nc(C)c1C`: the solubility (kinetic) (as a rule, solubility judged after dilution from a stock solution rather than from solid) was over 53.2 µg/mL.

Take `CCN1CCN(c2ncnc3scc(-c4ccc(C)c(C)c4)c23)CC1`: the solubility (kinetic) was over 52.9 µg/mL. Consider `COc1ccc(C2(c3ccc(OC)cc3)NC(=O)N(CC(=O)Nc3cc(C)on3)C2=O)cc1`, for which the solubility (kinetic) is 27.4 µg/mL (≈ 60.8 µM).

With `O=C(CN1CCOCC1)Nc1cccc([N+](=O)[O-])c1`, the solubility (kinetic) was determined as 36.3 µg/mL (≈ 137 µM). To `CCCC(=O)Nc1cc2c3c(c1)C(C)C(=O)N3CCC2` (stereo not drawn) belongs 38 µg/mL (≈ 140 µM).

As for `CCOC(=O)c1cc(-c2csc(-c3cccc(Cl)c3)n2)on1`, the solubility (kinetic) is under 0.4 µg/mL. Compound `COc1ccc(C2C(C#N)=C(N)Oc3cccc(O)c32)cc1` (stereo not drawn) returned a solubility (kinetic) of 9.6 µg/mL (≈ 32.6 µM). To `CC(=O)Nc1c(O)nc(C)[nH]c1=O` belongs over 27.5 µg/mL. To `Cc1ccc(OCC(=O)NC(C)c2ccccc2)cc1` (stereo not drawn) belongs over 40.4 µg/mL. The compound `COc1ccc(C(=O)CCC(C)(C)[N+](=O)[O-])cc1OC` returned a solubility (kinetic) of over 42.2 µg/mL. The compound `COc1cc(OC)c(CN2CCCN(C)CC2)cc1Br` returned a kinetic solubility of 44.9 µg/mL (≈ 131 µM).

In the case of `COc1ccc2cc(C(=O)N3CCN(c4ccc(F)cc4)CC3)[nH]c2c1`, the kinetic solubility was 1.6 µg/mL (≈ 4.53 µM).

Take `COc1ccc(Cc2cnc(N)s2)cc1`: the kinetic solubility came out at 31.8 µg/mL (≈ 144 µM).

For `CN(C)C(=O)c1ccc(NC(=O)COC(=O)C2(c3ccccc3)CCCC2)cc1`, the solubility (kinetic) was 24.3 µg/mL (≈ 61.6 µM). `COc1cccc(OC)c1CN(C)C(=O)c1cnccc1C(F)(F)F` yielded a kinetic solubility of over 53.1 µg/mL.

As for `O=S(=O)(c1ccc(=S)[nH]c1)N1CCCCCC1`, the kinetic solubility came out at 32 µg/mL (≈ 117 µM). To `Cc1cc([N+](=O)[O-])ccc1NC(=O)CCC(=O)N1CCCCCC1` belongs over 50 µg/mL; to `CCc1ccc(NC(=O)CCc2ccc(CC)o2)cc1`, 4 µg/mL (≈ 14.7 µM); to `Cc1ccc(C(=O)NCCNC(=O)c2ccccc2)cc1`, over 42.4 µg/mL. `CC(C)CC(C(=O)Nc1ccccc1)N1C(=O)C2C3C=CC(C3)C2C1=O` (stereo not drawn) displayed a kinetic solubility of over 52.9 µg/mL. As for `CCOC(=O)/C=c1\s/c(=C(\C#N)C(N)=O)n(-c2ccccc2)c1=O`, the solubility (kinetic) stood at 8.4 µg/mL (≈ 24.5 µM).

Consider `O=[N+]([O-])c1ccc(Oc2cccc3cccnc23)c(Cl)c1`, for which the kinetic solubility was 14.1 µg/mL (≈ 46.9 µM). For `C=C(C)c1cccc(C(C)(C)NC(=O)Nc2nncs2)c1`, the kinetic solubility was over 45.4 µg/mL. For `CCNC(=S)N1CCC(Cc2ccccc2)CC1` the value was 35.4 µg/mL (≈ 135 µM); for `CC1CCCCN1C(=O)Cn1cnc2cc([N+](=O)[O-])ccc2c1=O` (stereo not drawn), over 49.6 µg/mL; for `O=C(O)CC[C@@H](C(=O)O)N1C(=O)c2ccccc2C1=O`, over 41.6 µg/mL. For `COc1ccccc1CNC(=O)CN1C(=O)NC2(CCOc3ccccc32)C1=O` (stereo not drawn) the value was 7.9 µg/mL (≈ 20 µM). As to `COc1ccc(CCN2C(=NC(=O)C(C)C)SC3CS(=O)(=O)CC32)cc1` (stereo not drawn), the solubility (kinetic) was found to be 6.6 µg/mL (≈ 16.6 µM). For `COc1cccc(NC(=O)CN(C)C(=O)c2ccccn2)c1` the value was over 44.9 µg/mL.

Regarding `COc1cc(CN2CCCN(C)CC2)c([N+](=O)[O-])cc1OC`, the kinetic solubility was 39 µg/mL (≈ 126 µM).

`Br.COc1ccc(C2=CSC3=NCCN23)cc1OC` came in with a solubility (kinetic) of over 51.5 µg/mL.

Compound `Cc1ccc(OC(C)C(=O)Nc2ncc(Cl)cc2Cl)c([N+](=O)[O-])n1` (stereo not drawn) returned a solubility (kinetic) of 8.9 µg/mL (≈ 24 µM). For `Cc1ccc(-n2nc(C(=O)O)cc2-c2ccccc2Cl)cc1` the value was over 46.9 µg/mL. On to `CCOc1ncccc1C(=O)Nc1ccccc1F`, for which the solubility (kinetic) is 2.5 µg/mL (≈ 9.61 µM). In the case of `CCN1CCN(C(=O)c2ccc(C(F)(F)F)cc2)CC1`, the kinetic solubility was found to be 40.6 µg/mL (≈ 142 µM). In the case of `Cc1cc(NC(=O)CSCc2ccc([N+](=O)[O-])cc2)no1`, the kinetic solubility was 24.6 µg/mL (≈ 80 µM). `N#Cc1cccc(NC(=O)CCNC(=O)c2ccccc2Cl)c1` showed a kinetic solubility of over 49.2 µg/mL.

`Cc1cccc(Nc2c3c(nc4ccccc24)CCC3)c1.Cl` showed a solubility (kinetic) of 44.9 µg/mL. To `CN(CC(=O)Nc1ccc(OC(F)(F)F)cc1)C(=O)/C=C/c1ccco1` belongs 7.7 µg/mL (≈ 20.9 µM); to `Cc1ccc(Nc2nc(N)c(C#N)c(CC#N)c2C#N)cc1`, 1.6 µg/mL (≈ 5.55 µM); to `C=CCN(CC=C)C(=S)Nc1ccc(OC)c(OC)c1`, over 43.9 µg/mL. To `Cc1c(O)ccc(C(=O)CN2CCN(Cc3ccccc3)CC2)c1O` belongs 38.1 µg/mL (≈ 112 µM); to `CC(=O)N(C)c1ccc(C(O)(C(F)(F)F)C(F)(F)F)cc1`, over 47.3 µg/mL. In the case of `CN(C(=O)CN1C(=O)NC2(CCCc3ccccc32)C1=O)C1CCCCC1` (stereo not drawn), the kinetic solubility is over 55.4 µg/mL. With `Nc1ncnc2nc(SCC(=O)Nc3ccccc3F)[nH]c12`, the kinetic solubility was 29.8 µg/mL (≈ 93.6 µM). For `COc1ccc(C(=O)Nc2cc([N+](=O)[O-])ccc2N2CCCC2)cc1` the value was 2.6 µg/mL (≈ 7.62 µM); for `CC(C)N(Cc1ccccc1)C(=O)COC(=O)c1cnccn1`, over 47 µg/mL. To `CC(=O)c1cccc(NC(=O)Nc2ccc3c(c2)CCC3)c1` belongs 0.3 µg/mL (≈ 1.02 µM). The compound `COCC(C)Nc1ccc(S(=O)(=O)N2CCCC2)cc1[N+](=O)[O-]` (stereo not drawn) registered a kinetic solubility of 44.2 µg/mL (≈ 129 µM). For `CCc1ccc(NC(=S)N2CCN(c3cccc(OC)c3)CC2)cc1` the value was 0.3 µg/mL (≈ 0.844 µM); for `COc1ccc(NC(=O)c2ccc[n+]([O-])c2)cc1`, over 36.6 µg/mL; for `O=C(NN1CCOCC1)c1ccc(F)cc1`, over 33.6 µg/mL. To `CN(C)S(=O)(=O)N1CCN(c2ccc([N+](=O)[O-])c(NC3CC3)c2)CC1` belongs 0.6 µg/mL (≈ 1.62 µM); to `CC1CCCN(C(=O)c2cc3ccccc3cc2O)C1` (stereo not drawn), 38.5 µg/mL (≈ 143 µM). To `COc1cc(C(=O)c2ccccc2)c([N+](=O)[O-])cc1OC` belongs over 43.1 µg/mL; to `O=S(=O)(Nc1ncccn1)c1ccc(F)cc1`, over 38 µg/mL. For `CCC(=O)N(C(=O)CC)N1CCN(c2ccncc2S(=O)(=O)N2CCCCC2)CC1`, the solubility (kinetic) was over 65.6 µg/mL. With `O=c1cc(OCc2ccccc2)cc[nH]1`, the solubility (kinetic) was over 30.2 µg/mL. Turning to `CCOc1ccccc1NC(=O)COc1ccc2ccc(=O)oc2c1`, the kinetic solubility came to 0.9 µg/mL (≈ 2.65 µM). As for `Cc1cccc(C)c1NC(=O)C1CCCCN1C.Cl` (stereo not drawn), the solubility (kinetic) is over 42.4 µg/mL. To `COc1ccc(-c2ccnc(-c3ccncc3)n2)cc1` belongs over 39.5 µg/mL; to `CCNc1nc(NCC)nc(Oc2ccc(C(=O)OC)cc2)n1`, 2.8 µg/mL (≈ 8.82 µM). Turning to `CCN(CC)c1ccc(NC(=O)CCCCC(=O)Nc2ccc(N(CC)CC)cc2)cc1`, the kinetic solubility is 0.4 µg/mL (≈ 0.912 µM). The compound `O=Cc1cccc(Oc2ncccn2)c1` showed a kinetic solubility of over 30 µg/mL. For `O=C(c1ccc(F)cc1F)N1CCN(c2ccccn2)CC1` the value was over 45.5 µg/mL. Consider `CCCOc1ccc(S(=O)(=O)N2CCOCC2)cc1[N+](=O)[O-]`, for which the kinetic solubility is over 49.6 µg/mL. To `NC(=O)C1(N2CCCCC2)CCN(Cc2nc(-c3cccs3)no2)CC1` belongs over 56.3 µg/mL; to `Cc1cc(=O)oc2cc(OCC(=O)N3CCN(Cc4ccccc4)CC3)ccc12`, 56.7 µg/mL (≈ 144 µM); to `CN(Cc1cnccn1)Cc1nc(Cc2ccccc2F)no1`, over 47 µg/mL. `Cc1ccc(NC(=O)NC(=O)c2cnccc2C(F)(F)F)c(C)c1`: the kinetic solubility was found to be 10.9 µg/mL (≈ 32.3 µM). For `Cn1cc(C(C[N+](=O)[O-])c2ccccc2)c2ccccc21` (stereo not drawn) the value was 2.6 µg/mL (≈ 9.27 µM); for `O=C(Nc1ccc(Br)cc1)C1Cc2ccccc2O/C1=N\O` (stereo not drawn), under 0.4 µg/mL. For `O=C1CCCN1CC(O)CS(=O)(=O)Cc1ccccc1Cl` (stereo not drawn) the value was over 49.8 µg/mL.
